In US12565490B2, “Inhibitors of Receptor Interacting Protein Kinase I for the treatment of disease” (Board of Regents, The University of Texas System, priority 2020, dated 2026):

system: human monocytic cell line U937; experiment: Human U937 cellular necroptosis assay; format: cell-based; conditions: U-937; U937 cells stimulated with 25 ng/mL human TNFalpha and 25 μM z-VAD-FMK; 22 hr; viability by Cell Titer-Glo 2.0; read-out: hU937 IC50
Outline: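 U937 cells (5000/well) driven to necroptosis by 25 ng/mL human TNFalpha plus 25 μM z-VAD-FMK alongside 1:3-diluted compounds, 22 hr at 37° C, 5% CO2. Viability by CellTiter-Glo luminescence; IC50 from four-parameter logistic fit.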

Going from `CN1C(=O)[C@@H](NC(=O)c2ncc(Cl)c(-c3ccc(F)cc3F)n2)COc2cc(C#N)ccc21` [Example 138, (S)-5-chloro-N-(8-cyano-5-methyl-4-oxo-2,3,4,5-tetrahydrobenzo[b]-[1,4]oxazepin-3-yl)-4-(2,4-difluorophenyl)pyrimidine-2-carboxamide] to `Cc1ccc(-c2nc(C(=O)N[C@H]3COc4cc(C#N)ccc4N(C)C3=O)ncc2Cl)c(F)c1` [Example 139, (S)-5-chloro-N-(8-cyano-5-methyl-4-oxo-2,3,4,5-tetrahydrobenzo[b]-[1,4]oxazepin-3-yl)-4-(2-fluoro-4-methylphenyl)pyrimidine-2-carboxamide], the IC50 rises from 16.4 nM to 32.6 nM (2-fold).

Compared with `CN1C(=O)[C@@H](NC(=O)c2ncc(Cl)c(-c3ccc(F)cc3F)n2)COc2ccc(NCC(F)(F)CCl)cc21` [Example 140, (S)-5-chloro-N-(7-((3-chloro-2,2-difluoropropyl)amino)-5-methyl-4-oxo-2,3,4,5-tetrahydrobenzo[b]-[1,4]oxazepin-3-yl)-4-(2,4-difluorophenyl)pyrimidine-2-carboxamide], `CN1C(=O)[C@@H](NC(=O)c2ncc(Cl)c(-c3ccc(F)cc3F)n2)COc2ccc(NCC3(CCl)CCOCC3)cc21` [Example 141, (S)-5-chloro-N-(7-(((4-(chloromethyl)tetrahydro-2H-pyran-4-yl)methyl)amino)-5-methyl-4-oxo-2,3,4,5-tetrahydrobenzo[b]-[1,4]oxazepin-3-yl)-4-(2,4-difluorophenyl)pyrimidine-2-carboxamide] is 2.4-fold lower in IC50: 35.4 nM for the first, 14.5 nM for the second.

`CN1C(=O)[C@@H](NC(=O)c2ncc(Cl)c(-c3cc(F)ccc3F)n2)COc2ccc(NCC3(CCl)CCOCC3)cc21` [Example 142, (S)-5-chloro-N-(7-(((4-(chloromethyl)tetrahydro-2H-pyran-4-yl)methyl)amino)-5-methyl-4-oxo-2,3,4,5-tetrahydrobenzo[b]-[1,4]oxazepin-3-yl)-4-(2,5-difluorophenyl)pyrimidine-2-carboxamide] and `CN1C(=O)[C@@H](NC(=O)c2ncc(Cl)c(-c3cc(F)ccc3F)n2)COc2ccc(N3CC4(CCOCC4)C3)cc21` [Example 144, (S)-5-chloro-4-(2,5-difluorophenyl)-N-(5-methyl-4-oxo-7-(7-oxa-2-azaspiro[3.5]nonan-2-yl)-2,3,4,5-tetrahydrobenzo[b]-[1,4]oxazepin-3-yl)pyrimidine-2-carboxamide] are within 1.5-fold of each other in IC50: 19 nM for the first, 15.8 nM for the second.

Compared with `CN1C(=O)[C@@H](NC(=O)c2ncc(Cl)c(-c3ccc(F)cc3F)n2)COc2ccc(N3CCOCC3)cc21` [Example 143, (S)-5-chloro-4-(2,4-difluorophenyl)-N-(5-methyl-7-morpholino-4-oxo-2,3,4,5-tetrahydrobenzo[b]-[1,4]oxazepin-3-yl)pyrimidine-2-carboxamide], `Cc1cnn(-c2ccc3c(c2)N(C)C(=O)[C@@H](NC(=O)c2ncc(Cl)c(-c4ccc(F)cc4F)n2)CO3)c1` [Example 152, (S)-5-chloro-4-(2,4-difluorophenyl)-N-(5-methyl-7-(4-methyl-1H-pyrazol-1-yl)-4-oxo-2,3,4,5-tetrahydrobenzo[b]-[1,4]oxazepin-3-yl)pyrimidine-2-carboxamide] is 2.4-fold lower in IC50: 71 nM for the first, 29.2 nM for the second.

`Cc1ccc(-c2nc(C(=O)N[C@H]3COc4ccc(N5CC6(CCOCC6)C5)cc4N(C)C3=O)ncc2Cl)cc1F` [Example 145, (S)-5-chloro-4-(3-fluoro-4-methylphenyl)-N-(5-methyl-4-oxo-7-(7-oxa-2-azaspiro[3.5]nonan-2-yl)-2,3,4,5-tetrahydrobenzo[b]-[1,4]oxazepin-3-yl)pyrimidine-2-carboxamide] and `Cc1ccc(-c2nc(C(=O)N[C@H]3COc4ccc(CN5CCn6ncnc6C5)cc4N(C)C3=O)ncc2Cl)cc1F` [Example 153, (S)-5-chloro-N-(7-((5,6-dihydro-[1,2,4]triazolo[1,5-a]pyrazin-7(8H)-yl)methyl)-5-methyl-4-oxo-2,3,4,5-tetrahydrobenzo[b]-[1,4]oxazepin-3-yl)-4-(3-fluoro-4-methylphenyl)pyrimidine-2-carboxamide] are within 1.5-fold of each other in IC50: 11 nM for the first, 10 nM for the second.

`COCCOc1ccc2c(c1)N(C)C(=O)[C@@H](NC(=O)c1ncc(Cl)c(-c3ccc(F)cc3F)n1)CO2` [Example 146, (S)-5-chloro-4-(2,4-difluorophenyl)-N-(7-(2-methoxyethoxy)-5-methyl-4-oxo-2,3,4,5-tetrahydrobenzo[b]-[1,4]oxazepin-3-yl)pyrimidine-2-carboxamide] and `CN1C(=O)[C@@H](NC(=O)c2ncc(Cl)c(-c3ccc(F)cc3F)n2)COc2ccc(OCC(CO)CCl)cc21` (stereo partly drawn) [Example 147, 5-chloro-N-((3S)-7-(3-chloro-2-(hydroxymethyl)propoxy)-5-methyl-4-oxo-2,3,4,5-tetrahydrobenzo[b]-[1,4]oxazepin-3-yl)-4-(2,4-difluorophenyl)pyrimidine-2-carboxamide] are within 1.5-fold of each other in IC50: 19.4 nM for the first, 20.9 nM for the second.

`CN1C(=O)[C@@H](NC(=O)c2ncc(Cl)c(-c3ccc(F)cc3F)n2)COc2ccc(Oc3ccn(C)n3)cc21` [Example 148, (S)-5-chloro-4-(2,4-difluorophenyl)-N-(5-methyl-7-((1-methyl-1H-pyrazol-3-yl)oxy)-4-oxo-2,3,4,5-tetrahydrobenzo[b]-[1,4]oxazepin-3-yl)pyrimidine-2-carboxamide] and `CN1C(=O)[C@@H](NC(=O)c2ncc(Cl)c(-c3cc(F)ccc3F)n2)COc2ccc(Oc3cnn(C)c3)cc21` [Example 161, (S)-5-chloro-4-(2,5-difluorophenyl)-N-(5-methyl-7-((1-methyl-1H-pyrazol-4-yl)oxy)-4-oxo-2,3,4,5-tetrahydrobenzo[b]-[1,4]oxazepin-3-yl)pyrimidine-2-carboxamide] are within 1.5-fold of each other in IC50: 8.58 nM for the first, 9 nM for the second.

`CN1C(=O)[C@@H](NC(=O)c2ncc(Cl)c(-c3ccc(F)cc3F)n2)COc2ccc(-c3ccnn3C)cc21` [Example 149, (S)-5-chloro-4-(2,4-difluorophenyl)-N-(5-methyl-7-(1-methyl-1H-pyrazol-5-yl)-4-oxo-2,3,4,5-tetrahydrobenzo[b]-[1,4]oxazepin-3-yl)pyrimidine-2-carboxamide] and `CN1C(=O)[C@@H](NC(=O)c2ncc(Cl)c(-c3ccc(F)cc3F)n2)COc2ccc(-c3cnn(C)c3)cc21` [Example 150, (S)-5-chloro-4-(2,4-difluorophenyl)-N-(5-methyl-7-(1-methyl-1H-pyrazol-4-yl)-4-oxo-2,3,4,5-tetrahydrobenzo[b]-[1,4]oxazepin-3-yl)pyrimidine-2-carboxamide] are within 1.5-fold of each other in IC50: 19.8 nM for the first, 14.2 nM for the second.

First: CN1C(=O)[C@@H](NC(=O)c2ncc(Cl)c(-c3ccc(F)cc3F)n2)COc2ccc(-c3cn[nH]c3)cc21 [Example 151]
Second: CN1C(=O)[C@@H](NC(=O)c2ncc(Cl)c(-c3ccc(F)cc3F)n2)COc2cc(CN3CCn4ncnc4C3)ccc21 [Example 154, (S)-5-chloro-4-(2,4-difluorophenyl)-N-(8-((5,6-dihydro-[1,2,4]triazolo[1,5-a]pyrazin-7(8H)-yl)methyl)-5-methyl-4-oxo-2,3,4,5-tetrahydrobenzo[b]-[1,4]oxazepin-3-yl)pyrimidine-2-carboxamide]
The IC50 of the first is 2.5-fold lower: 13 nM for the first, 32.1 nM for the second. The first is the more potent here.

`CN1C(=O)[C@@H](NC(=O)c2ncc(Cl)c(-c3cc(F)ccc3F)n2)COc2cc(CN3CCn4ncnc4C3)ccc21` [Example 155, (S)-5-chloro-4-(2,5-difluorophenyl)-N-(8-((5,6-dihydro-[1,2,4]triazolo[1,5-a]pyrazin-7(8H)-yl)methyl)-5-methyl-4-oxo-2,3,4,5-tetrahydrobenzo[b]-[1,4]oxazepin-3-yl)pyrimidine-2-carboxamide] and `Cc1cnc(C(=O)N[C@H]2COc3ccc(CN4CCn5ncnc5C4)cc3N(C)C2=O)nc1-c1ccccc1F` [Example 156, (S)-N-(7-((5,6-dihydro-[1,2,4]triazolo[1,5-a]pyrazin-7(8H)-yl)methyl)-5-methyl-4-oxo-2,3,4,5-tetrahydrobenzo[b]-[1,4]oxazepin-3-yl)-4-(2-fluorophenyl)-5-methylpyrimidine-2-carboxamide] are within 1.5-fold of each other in IC50: 24.8 nM for the first, 17.1 nM for the second.

Compared with `Cc1cnc(C(=O)N[C@H]2COc3cc(Cl)cnc3N(C)C2=O)nc1-c1cc(C(F)(F)F)cs1` [Example 157, (S)-N-(8-chloro-5-methyl-4-oxo-2,3,4,5-tetrahydro-pyrido[3,2-b][1,4]oxazepin-3-yl)-5-methyl-4-(4-(trifluoromethyl)thiophen-2-yl)-pyrimidine-2-carboxamide], `CN1C(=O)[C@@H](NC(=O)c2ncc(CN)c(-c3ccccc3)n2)COc2cc(Cl)cnc21` [Example 162, (S)-5-(aminomethyl)-N-(8-chloro-5-methyl-4-oxo-2,3,4,5-tetrahydropyrido[3,2-b][1,4]oxazepin-3-yl)-4-phenylpyrimidine-2-carboxamide] is 3.5-fold lower in IC50: 423 nM for the first, 122 nM for the second.

`Cc1cnc(C(=O)N[C@H]2COc3cc(Cl)cnc3N(C)C2=O)nc1C1CCC(F)(F)CO1` (stereo partly drawn) [Example 158, N-((S)-8-chloro-5-methyl-4-oxo-2,3,4,5-tetrahydro-pyrido[3,2-b][1,4]oxazepin-3-yl)-4-(5,5-difluorotetrahydro-2H-pyran-2-yl)-5-methylpyrimidine-2-carboxamide] and `CN1C(=O)[C@@H](NC(=O)c2ncc(Cl)c([C@@H]3COCCO3)n2)COc2cc(Cl)cnc21` [Example 163a, 5-chloro-N—((S)-8-chloro-5-methyl-4-oxo-2,3,4,5-tetrahydropyrido[3,2-b][1,4]oxazepin-3-yl)-4-((R)-1,4-dioxan-2-yl)pyrimidine-2-carboxamide] are within 1.5-fold of each other in IC50: 149 nM for the first, 172 nM for the second.

Compared with `Cc1cnc(C(=O)N[C@H]2COc3ccc(Oc4cnn(C)c4)cc3N(C)C2=O)nc1-c1ccccc1F` [Example 159, (S)-4-(2-fluorophenyl)-5-methyl-N-(5-methyl-7-((1-methyl-1H-pyrazol-4-yl)oxy)-4-oxo-2,3,4,5-tetrahydrobenzo[b]-[1,4]oxazepin-3-yl)pyrimidine-2-carboxamide], `Cc1cnc(C(=O)N[C@H]2COc3ccc(Oc4cnn(C)c4)cc3N(C)C2=O)nc1-c1ccc(C#N)cc1` [Example 160, (S)-4-(4-cyanophenyl)-5-methyl-N-(5-methyl-7-((1-methyl-1H-pyrazol-4-yl)oxy)-4-oxo-2,3,4,5-tetrahydrobenzo[b]-[1,4]oxazepin-3-yl)pyrimidine-2-carboxamide] is 2.7-fold higher in IC50: 9 nM for the first, 24 nM for the second. The first is the more potent here.
